In patent publication US20240091214A1, “LONAFARNIB FOR USE IN THE TREATMENT OF VIRAL INFECTIONS” (TWINCORE ZENTRUM FÜR EXPERIMENTELLE UND KLINISCHE …, priority 2021, published 2024):
Where two headings read alike, the source gives them in different places.

How the values were obtained:
HRSV H01 ON1 isolate = assay: Infection assay with HRSV H01 ON1 isolate, intracellular FACS staining against a virus own protein; format: cell-based, human respiratory syncytial virus (HRSV)
Method: Both graphs show data from analysing the viral infection efficiency by intracellular flow cytometry staining against a virus own protein. […] MFI: mean fluorescence intensity
Another infection assay was carried out with the HRSV H01 ON1 isolate. The analysis/quantification of the viral infection efficiency was carried out by intracellular FACS staining against a virus own protein. […] The amount of viral proteins in the infected cells was […] by the administration of lonafarnib.

[1] = system: clinical HRSV isolate HRSV H01 ON1; assay: Plaque reduction test with clinical HRSV isolate; format: cell-based, human respiratory syncytial virus (HRSV); details: clinical HRSV H01 ON1 isolate (FIG. 4)
Method: The respective concentrations of lonafarnib, tipifarnib and DMSO (control; final concentration 1%) administered to the cells are indicated on the respective well.
To confirm the antiviral effect of lonafarnib, an infection assay was performed with the clinical HRSV isolate HRSV H01 ON1. The infection efficiency was assessed in the plaque reduction test, i.e. independently of an indirect reporter gene measurement. […] (FIG. 4)

HRSV-B virus = assay: HRSV-B infection assay, number of infected cells; format: cell-based; details: % compared to DMSO control (FIG. 9)
Description: However, […].

[2] = animals, formulated in crystalline forms; cited from earlier work
[3] = system: Hepatitis Delta Virus (HDV); assay: Production of infectious Hepatitis Delta Virus in transfected Huh7-hNTCP cells; format: cell-based; details: increasing concentrations (FIG. 8)
Method: 16 h later medium was exchanged and the cells were then cultured in absence or presence of 1% DMSO or increasing concentrations of lonafarnib or tipifarnib; (A) 10 days post transfection, translation of the HDV viral genome in the cells was confirmed by immunofluorescence and percentage of positive cells was calculated; (B) production of infectious progeny HDV was assessed by incubating serial dilutions of their supernatants on naïve Huh7-hNTCP, followed by staining for the HD-Ag—dashed lines indicates the detection threshold of the assay.

[4] = system: HRSV virus population with resistance to a fusion inhibitor (mutations within the F protein); assay: Infection assay with HRSV population resistant to an HRSV fusion inhibitor, intracellular FACS staining; format: cell-based, human respiratory syncytial virus (HRSV); details: fusion inhibitor adapted virus compared with DMSO adapted virus (FIG. 6)
Method: The most significant reduction of infected cells is shown in the DMSO adapted virus population by administration of lonafarnib. Dark grey: DMSO adapted virus; light grey: fusion inhibitor adapted virus.
Further, the efficacy of lonafarnib on HRSV virus population that had previously developed resistance to an HRSV fusion inhibitor was investigated. The effectiveness of HRSV infection (number of infected cells) was determined by intracellular FACS staining. […] The HRSV virus population with resistance to a fusion inhibitor was also less susceptible to inhibition by lonafarnib.

HRSV = HRSV infection of differentiated BCi-NS1.1 air-liquid-interface cultures, viral load by qRT-PCR; format: cell-based, human respiratory syncytial virus (HRSV); details: differentiated human airway epithelial cells (BCi-NS1.1), HBSS rinsing fluid and harvested cells, different doses and time points (FIG. 7)
Description: Shown are viral loads measured by qRT-PCR after HRSV infection in differentiated BCi-NS1.1 cells and treatment with lonafanib at different doses. right: viral load in HBSS rinsing fluid at different time points after infection. left: viral load of harvested cells, also at different time points after infection.
Then, the antiviral effect of lonafarnib against HRSV was shown in differentiated human airway epithelial cells. Therefore, BCi NS1.1 cells were differentiated and used in so-called “air-liquid-interface” cultures to form a pseudo-stratified lung epithelium. The cells were then infected with HRSV and treated with lonafarnib at different concentrations. The compounds were added to the medium from the basolateral pole of the cell (“liquid interface”, homologous to the blood stream) as well as administered apically (homologous to local treatment via inhalation). At different time points post infection, the cell surface (“air interface”, apical side of the cell culture, homologous to the lumen of the lung) was rinsed with HBSS to remove released viruses from the cell surface. The viral load in the HBSS rinsing fluid was determined by qRT-PCR. Also, at each time point cells were lysed and the virus load in the cell extract was determined by qRT-PCR. (FIG. 7)

[5] = cited from earlier work
[6] = system: HRSV luciferase reporter virus; assay: HRSV luciferase reporter virus infection assay (first and second round of infection); format: cell-based, human respiratory syncytial virus (HRSV); details: for IC50: human respiratory syncytial virus, 24 h
Description: The dose-response relationship of lonafarnib to the HRSV reporter virus is shown on the right. Below are the IC50 and IC90 values of the first round of infection and the second round of infection, respectively, and the 50% cytotoxic concentration of lonafarnib (CC50).
The chemical structure of the farneslytransferase inhibitors lonafarnib and tipifarnib is shown above. The dose-response relationship of these agents against the HRSV luciferase reporter virus is shown below.
Efficiency of HRSV infection-inhibition by lonafarnib was investigated by a series of infection assays. In the first round of infection, the effect of lonafarnib on the virus' cell entry, which includes RNA transcription, translation and replication up to 24 hours after infection, was investigated. In the second round of infection, the cell culture supernatant was harvested and transferred to naive cells at 24 h after primary infection. In these cells, again 24 h later, the infection efficiency was determined using the luciferase reporter. In this way, the efficiency was analyzed over a longer period of time, including the spread of the virus and the re-infection of cells. The IC50 values were determined at 0.02 μM (round 1) and 0.004 μM (round 2). (FIG. 2)
In a further trial, the effect of lonafarnib compared to the farnesyltransferase inhibitor tipifarnib on HRSV-infected cell culture was then analyzed and compared.

## NC(=O)N1CCC(CC(=O)N2CCC([C@H]3c4ncc(Br)cc4CCc4cc(Cl)cc(Br)c43)CC2)CC1 [lonafarnib]
HRSV H01 ON1 isolate; intracellular FACS staining (FIG. 5 left)
  number of infected cells: reduced the number of infected cells in a dose-dependent manner
HRSV H01 ON1 isolate; intracellular FACS staining (FIG. 5 right)
  amount of viral proteins in the infected cells (MFI): not reduced
[1]
  plaque formation (plaque size and number): reduced plaque size and number in a dose-dependent manner
HRSV-B virus
  inhibition of HRSV-B infection (number of infected cells): selectively and efficiently inhibits the number of infected cells
[2]
  bioavailability: low and variable
[3]
  inhibition of Hepatitis Delta infections: equally inhibit Hepatitis Delta infections
[4]
  activity against fusion inhibitor-resistant HRSV population (number of infected cells): reduced activity
HRSV
  inhibition of HRSV infection (viral load by qRT-PCR): inhibits HRSV infection
[5]; acidic or basic conditions
  stability in solution: will hydrolyze
[5]
  water solubility: poorly water soluble
[5]; neutral pH
  stability in solution: stable at neutral pH
[5]; solid state, thermal
  stability in the solid state: thermally stable
[6]; HRSV-infected cell culture, dose-response, comparison of lonafarnib and tipifarnib (FIG. 3)
  suppression of HRSV infection: highly effective
[6]; read-out: IC50, first round of infection
  IC50: 20 nM
[6]; read-out: IC50, second round of infection
  IC50: 4 nM
